The test has as its target 5-hydroxytryptamine receptor 7 (Homo sapiens, UniProt P34969). In words: Displacement of [3H]LSD from 5-HT7 receptor (unknown origin) expressed in CHO-K1 cells by liquid scintillation counting method. In general terms: In a radioligand displacement assay an active substance lowers the binding of a labelled ligand.

In general, Ki refers to the dissociation constant of the complex between target and ligand, obtained from inhibition or displacement. A higher Ki goes with lower affinity.

Molecules are shown by their SMILES.

5-hydroxytryptamine receptor 7, sequence (P34969 whole entry): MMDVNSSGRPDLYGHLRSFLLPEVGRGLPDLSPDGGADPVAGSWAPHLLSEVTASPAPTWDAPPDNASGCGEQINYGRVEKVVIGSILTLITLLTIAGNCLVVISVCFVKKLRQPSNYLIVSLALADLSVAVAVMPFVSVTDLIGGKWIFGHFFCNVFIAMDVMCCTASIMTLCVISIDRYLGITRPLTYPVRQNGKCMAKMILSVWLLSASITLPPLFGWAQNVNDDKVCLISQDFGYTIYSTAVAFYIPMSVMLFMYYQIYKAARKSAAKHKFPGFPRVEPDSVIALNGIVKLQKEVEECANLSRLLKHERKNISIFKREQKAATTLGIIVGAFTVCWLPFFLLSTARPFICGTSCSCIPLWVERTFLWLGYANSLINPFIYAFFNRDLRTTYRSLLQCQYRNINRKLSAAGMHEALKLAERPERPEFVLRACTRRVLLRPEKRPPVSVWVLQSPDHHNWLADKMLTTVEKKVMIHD

`CC1CCCN(CCCCC(=O)n2c3ccccc3c3ccccc32)C1` (stereo unspecified) displayed an inhibition constant (Ki) of 794 nM.

The record behind these values is BindingDB's records for doi:10.1016/j.ejmech.2016.01.043 (Yonsei University, 2016).
